One block for each molecule: values may come before it. Bridges are numbered along the chain shown (N, C = ends). Where no end group is shown, it is not given here.
Assays:
[1] = tested on: BMP-7 induced and basal alkaline phosphatase activity in ROS cells (rat Osteosarcoma 17/2.8); assay: ROS cell based alkaline phosphatase assay
Protocol: ROS Cell Based Alkaline Phosphatase Assays: BMP-7 and test agents that bind BMP-7 receptors were analyzed by in vitro bioassay. This assay defines the role of these test agents at the receptor-binding site. It is believed that some of the test agents can effectively interact with receptors and inhibit BMP-7 induced target cell responsiveness, thereby acting as functional antagonists. Alternatively, these agents may mimic BMP-7 functions inducing alkaline phosphatase activity in ROS cells, thus acting as functional agonists. An assay procedure as described by Maliakal, J. C., et al., Growth Factors 11, 227-234, (1994) determined the biological activities of BMP-7 peptides. In a typical experiment, rat Osteosarcoma (17/2.8) cells were plated in 96 well plates (3.0×10^4 cells/well) and incubated overnight at 37 C in 5-6% CO2 incubator. Next day, the plates were examined to make sure that cells are healthy & confluent. Cells were treated with increasing concentrations of BMP-7 standard (1-10,000 ng/ml) or test agents (0.02-200 μM) or appropriate concentrations of test agent alone or with BMP-7 standard prepared in medium containing 1% FBS and incubated for 2 days at 37 C in 5-6% CO2 incubator. The cellular content of alkaline phosphatase activity was determined by the method of Reddi, A. H. & Huggins, C. B. Proc. Natl. Acad. Sci. USA 69, 1601-1605 (1972). Enzyme estimations were routinely carried out in 96 well plates. Following removal of culture medium, cells were washed with pre-warmed PBS (150 μl) and further incubated in 100 μl of pre-warmed 1% Triton X-100 for 30 minutes at 37 C. Plates were centrifuged for 10 minutes at full speed, and recovered samples (each 15 μl) were assayed for enzyme activity by adding 90 μl p-nitrophenyl phosphate (Sigma, St. Louis, Mo.) as a substrate in 0.05 M glycine-NaOH buffer, pH 9.3 and incubating for 20 minutes at 37 C. The reaction was stopped by adding 75 ul of 0.2 N NaOH/well and absorbance at 405/490 nm is measured on a Dynatech MR 700 plate reader (Dynatech Laboratories, U.K.). Results are expressed as concentration of peptide/small molecule inhibitor (with antagonist activity) required to give 50% inhibition of maximum response to BMP-7 standard. The activities of test agents that stimulate cell responsiveness (with agonist activity), are expressed relative to BMP-7 standard.

ECD of daf-4 receptor = molecular target: T1, ECD of daf-4 receptor (Caenorhabditis elegans, UniProt P50488); assay: Type II receptor-based HTS rapid solid-phase assay; format: binding, C. elegans; conditions: ECD immobilized on PVDF membrane, 18 h, room temperature
T1 construct: 1 includes additional portions on the N and C terminus; made in house; host or cells: transfected DHFR(-) CHO cell line PJ511.9.8, purified from conditioned medium
T1 sequence (P50488 with tags, fused parts or gaps): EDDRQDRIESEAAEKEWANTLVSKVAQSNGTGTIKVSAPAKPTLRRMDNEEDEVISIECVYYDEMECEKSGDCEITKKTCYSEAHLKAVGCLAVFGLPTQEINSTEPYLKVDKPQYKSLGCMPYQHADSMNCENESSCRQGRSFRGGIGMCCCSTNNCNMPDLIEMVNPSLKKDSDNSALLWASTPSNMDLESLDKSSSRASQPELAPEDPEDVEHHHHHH
Excerpt: Preparation of type II Receptor ECD: Highly purified extracellular domain (ECD) of the type II receptor daf-4 was used in this assay. The ECD of the daf-4 receptor was cloned and vectors (pCMV5 expression vectors, daf-4 sequence including the mammalian consensus start site and the hexa-histidine sequence tag) are constructed for the expression of this molecule in mammalian cells. In this construct, the ECD has been linked to a hexa-Histadine sequence tag for subsequent purification and detection. The transfected DHFR(−) CHO cell line PJ511.9.8 has been used for the daf-4 expression as outlined below. This cloning method can also be utilized with other bone morphogenetic proteins.
Purification of daf-4 ECD: A purification protocol to process large volumes of conditioned media (3.5 L/week) was developed. The procedure involves initial isolation of daf-4 ECD by using Talon (Pharmacia Tech.) Immobilized metal affinity column. As daf-4 ECD protein is linked to a hexa-His sequence, the protein is bound to the metal affinity column and is subsequently eluted by imidazoic ([…]) containing buffer. […] The purified preparation was analyzed by reversed phase HPLC. […]
HTS assay procedure: BMP-7 binding activity was determined by a rapid solid-phase assay using ^125I-labeled BMP-7 as ligand and highly purified ECD of daf-4 as type II receptor. […]

daf-4 ECD = molecular target: T2, daf-4 ECD (Caenorhabditis elegans, UniProt P50488); assay: BMP binding to purified daf-4 ECD (ligand blot, Scatchard analysis); parameters: species or system C. elegans
T2 construct: 1 includes additional portions on the N and C terminus; made in house; host or cells: transfected DHFR(-) CHO cell line PJ511.9.8, purified from conditioned medium
T2 sequence (P50488 with tags, fused parts or gaps): T1 sequence (P50488 with tags, fused parts or gaps)
Excerpt: A novel ligand-blot technique was developed to evaluate the binding of BMP-7 to the purified daf-4 ECD.

bone formation = assay: Subcutaneous implantation assay in rodents (bone formation); format: in vivo; conditions: rat, subcutaneous implant, day 14, data not shown
Protocol: Subcutaneous implantation assay in rodents: This assay is based on the ability of BMP-7 to induce bone formation in the rat. […] Briefly, 1.2 mg of bovine bone matrix (collagen carrier) was added to BMP-7 or test peptide or small molecule or BMP-7 and test peptide in 200 μl of 50% acetonitrile, […]. A minimum of 6 animals per group were used. The day of implantation is designated as day 0 of the assay. Implants were removed on day 14 for evaluation. Bone-forming activity in the implants was monitored by the calcium content essentially as described by Reddi, A. H. & Huggins, C. B. (1972) PNAS USA 69, 1601-1605. For histology, implants were fixed in Bouin's solution, embedded in JB4 plastic medium, cut into 1 um sections, and stained by toluidine blue. […] (Data not shown)

inhibition of 125I-labeled BMP-7 binding to the ECD of daf-4 receptor (ECD of daf-4 receptor): 75%
Molecule: CYFDDSSNVICKKYRS, SEQ I.D NO. 9; 11 residue loop with 5 residue C-terminal extension (disulfide 1-11; listed as Homo sapiens) [Peptide F2-3]
percent increase in BMP-7 response (relative to the absence of peptide) ([1]; peptide 0.01 μM, sub-maximal BMP-7, P<0.001): 53% | percent increase in BMP-7 response (relative to the absence of peptide) ([1]; peptide 0.1 μM, sub-maximal BMP-7, P=0.007): 54% | percent increase in BMP-7 response (relative to the absence of peptide) ([1]; peptide 1 μM, sub-maximal BMP-7, P=0.01): 48% | effect on basal cell responsiveness (basal alkaline phosphatase activity) ([1]; peptide alone): no significant effect | behaviour of peptide on BMP-7 induced cell responsiveness ([1]; peptide together with BMP-7): agonistic

binding to extracellular domain of daf-4 (daf-4 ECD): readily binds | inhibition of 125I-labeled BMP-7 binding to the ECD of daf-4 receptor (ECD of daf-4 receptor): 78%
B1: BMP-7: homodimeric glycoprotein of the TGF-β superfamily; unlabeled standard (protein)
chain: STGSKQRSQNRSKTPKNQEALRMANVAENSSSDQRQACKKHELYVSFRDLGWQDWIIAPEGYAAYYCEGECAFPLNSYMNATNHAIVQTLVHFINPETVPKPCCAPTQLNAISVLYFDDSSNVILKKYRNMVVRACGCH
bone formation in implants (bone formation): induced bone formation

Source: patent publication US20110081662A1, “SCREENING METHODS FOR BONE MORPHOGENETIC MIMETICS” (THRASOS THERAPEUTICS, INC., priority 2000, published 2011)
